According to patent publication US20090042208A1, “Assays for erectile and bladder dysfunction and vascular health” (priority 2007, published 2009):
Marks after values point to notes of the source that are not given here. Ends that are not written are not given here.

Legend:
[1] = system: retired breeder rats; experiment: Longest visually observed erection and ICP/BP after tadalafil, pVAX-hSlo or both; format: in vivo, rat; conditions: tadalafil 2.5 mg/kg orally 2 h before; pVAX-hSlo 1000 μg intracorporal 1 month before
Experimental: (§1) In a second set of animals (retired breeder, male Sprague Dawley rats) in which the effect of tadalafil was to be measured alone or in combination with pVAX-hSlo, 1000 μg pVAX-hSlo was administered to 10 animals 1 month prior to determination of erectile function and gene expression. Five of these animals were treated with 2.5 mg/kg of tadalafil orally two hours prior to ICP/BP measurement. A third group of five animals were untreated controls, and the fourth group of five animals treated with 2.5 mg/kg of tadalafil orally. two hours prior to ICP/BP measurement.
ICP/BP measurement. ICP/BP was measured essentially as previously described (Christ et al. 1998; Melman et al. 2003). Briefly, animals were anesthetized by intraperitoneal injection of pentobarbital sodium (35 mg/kg). An incision was made in the perineum, and the corpus cavernosum exposed. The cavernous nerves were identified adjacent to the prostate gland. Direct electrostimulation of a cavernous nerve was performed with a delicate stainless steel bipolar hook electrode attached to the multi-jointed clamp. […] Prior to electrostimulation the longest visually observed erection was measured. […] The changes in ICP and systemic BP were recorded at each level of neurostimulation. The mean ICP/BP, standard deviation, and analysis of variance were calculated for each of the treatment groups.

[2] = system: Vcsa1 and Slo transcripts in corporal tissue; experiment: Quantitative RT-PCR of Vcsa1 and Slo transcripts in corpora after tadalafil, pVAX-hSlo or both; format: in vivo, rat; conditions: tadalafil 2.5 mg/kg orally 2 h before; pVAX-hSlo 1000 μg 1 month before; or both
Experimental: as §1
RNA Isolation from corporal tissue. Following the ICP/BP measurement, animals were euthanized and corporal tissues isolated and flash frozen in liquid nitrogen. […]
Measurement of gene expression by quantitative RT-PCR. RNA extracted either from corporal tissue or transfected corporal smooth muscle cells was used to analyze gene expression by quantitative RT-PCR. […] Real-time quantitative PCR analysis was performed using the 7300 real-time PCR system (Applied Biosystems, Foster City, Calif.).
The PCR reactions for all samples were performed in 96-well plates, with 2 μl cDNA, 100 nM each primer, and 12.5 μl of Sybr Green in a 25-μl reaction volume. […] The relative quantified value for each target gene in corpora of treated rats is expressed as 2^−(Ct−Cc) (Ct and Cc are the mean threshold cycle differences after normalizing to RPL24). […]

[3] = system: isolated corporal smooth muscle tissue; experiment: Contractility (relaxation rate) of isolated corporal smooth muscle strips; set-up: species or system rat
Experimental: Studies of contractility of isolated smooth muscle tissue were carried out as described previously (Chang et al. 2003, Spektor et al. 2002). Four longitudinal strips of cavernous tissue from the crura of old animals (n=4) were dissected free from the tunica albuginea and were suspended between two small surgical hooks in a tension-measuring device (Multimyograph Model 610M, Copenhagen, Denmark) that allows simultaneous monitoring of four muscle strips. Tissue was equilibrated for 90 min in 6 ml Krebs-Henseleit buffer composed of 110 mM NaCl, 4.8 mM. KCl, 2.5 mM CaCl2, 1.2 mM MgSO4, 1.2 mM KH2PO4, 25 mM NaHCO3, 11 mM glucose, and dextrose in glass-distilled water. Organ chambers were maintained at 37° C. and continuously bubbled with 95% O2 and 5% CO2 to maintain a mean pH of 7.4±0.1. Continuous recording of tension developed by the muscle strips was carried out using Powerlab software (Chart version 4.2.4, ADinstruments, CO) on a dedicated computer. Strips of corpus cavernosum first were precontracted with phenylephrine (10^−6 M). Then, relaxation was induced using CNP (10^−6 M). […] Results from four separate strips from four animals were averaged and the significance determined by the Student's t test.

[4] = system: retired breeder male Sprague-Dawley rats; experiment: ICP/BP and blood pressure after intracorporal injection of sialorphin; format: in vivo, rat; conditions: 10 and 100 μg intracorporal
Experimental: Experiments were carried out on 9- to 10-month-old retired breeder male Sprague-Dawley rats weighing more than 500 g (as described in Melman et al. 2005). When measurements were complete, animals were killed by placement within a CO2 gas chamber. All protocols were approved by the Animal Use Committee and Internal Review board at the Albert Einstein College of Medicine.
The sialorphin peptide (2 mg) was dissolved in 0.5 ml of 0.01 N acetic acid and then was vortexed, and the solution was centrifuged for a few seconds at approximately 1000 g and 4° C. (to gather all the liquid at the bottom of the tube). The stock solution was stored in 25-μl aliquots (100 μg) at −70° C. Before use, the stock was thawed on ice, and phosphate buffered saline (pH 7.4) was added to bring the volume to 150 μl.
Intracorporal microinjection of sialorphin into rat corporal tissue was modified from previously described procedures, where plasmids were injected intracorporeally to investigate their effect on the ICP/BP ratio (Christ et al. 1998, 2004; Melman et al. 2005). […] The changes in ICP and systemic BP were recorded at both levels of neurostimulation. […] Mean ICP/BP (n=7) and standard deviation were calculated before and after treatment. Significant change in the ICP/BP value from that of the pretreatment group was determined by Student's t test.

CN1CC(=O)N2[C@H](c3ccc4c(c3)OCO4)c3[nH]c4ccccc4c3C[C@@H]2C1=O [tadalafil]
Longest erection time, difference to untreated control groups [1]: about 100 seconds | Longest measured erection time [1]: approximately 210 seconds | Vcsa1 expression increase versus untreated animals [2]: approximately 4 fold

C-type natriuretic peptide [CNP]
Increase in the relaxation rate of the tissue ([3]; 1 μM CNP, versus carrier): 67% | Rate of Tension Loss ([3]; strips precontracted with 1 μM phenylephrine, 1 μM CNP and/or 1 μg/ml sialorphin): 0.087* g/min

QHNPR [sialorphin, QHNPR]
Effect on systemic blood pressure [4]: no effect
